Experimental findings from patent US11377442B2, “Small molecule agonists and antagonists of NR2F6 activity” (ZANDER THERAPEUTICS, INC., priority 2016, dated 2022) are described below.

Molecules are shown by their SMILES.

The test addresses T1, NR2F6 (Homo sapiens, UniProt P10588).
T1 construct: expressed in transfected cells; also transient transfection
T1 sequence (P10588 1-404): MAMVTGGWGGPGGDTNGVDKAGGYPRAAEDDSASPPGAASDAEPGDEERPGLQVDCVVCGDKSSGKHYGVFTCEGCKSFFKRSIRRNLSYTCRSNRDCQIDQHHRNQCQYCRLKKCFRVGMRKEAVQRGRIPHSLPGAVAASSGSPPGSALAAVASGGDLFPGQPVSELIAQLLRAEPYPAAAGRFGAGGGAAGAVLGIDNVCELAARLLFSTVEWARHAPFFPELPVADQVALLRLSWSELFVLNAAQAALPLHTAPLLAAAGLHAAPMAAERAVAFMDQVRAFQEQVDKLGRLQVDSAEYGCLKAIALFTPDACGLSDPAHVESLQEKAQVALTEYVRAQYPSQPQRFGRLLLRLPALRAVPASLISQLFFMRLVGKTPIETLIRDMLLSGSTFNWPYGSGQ
Put plainly: NR2F6 agonist screening, Firefly signal cmpd/DMSO. The format is cell-based. The conditions noted are these: for Firefly/Renilla (NR2F6 stable, clone F4): ratio Firefly/Renilla; for Firefly, NR2F6 stable (clone F4)/pGL4: ratio of Firefly in NR2F6 stable clone F4 to pGL4.

The mark [1] stands for this setting: C11 analogs follow set (Tables 2-10).

As for `CCN(CC)c1ccc2cc(S(=O)(=O)c3ccc(Cl)cc3)c(=O)oc2c1` [Compound C279], under setting [1], the “Firefly, cmpd/DMSO repeat 1” value came to 3.9 and the “Firefly, cmpd/DMSO repeat 2” value is given as 2.1.
The like results for `COc1cc(NC(=O)c2ccc3oc(=O)c(S(=O)(=O)c4ccc(C)cc4)cc3c2)cc(OC)c1` [Compound C131] were, in that order, 9.5 and 15.3.
Turning to `COc1cccc(S(=O)(=O)c2cc3cc(Br)ccc3oc2=O)c1` [Compound C185], under setting [1], the “Firefly, cmpd/DMSO repeat 1” value is listed as 2.6 and the “Firefly, cmpd/DMSO repeat 2” value is on record as 2.4.
Regarding `COc1ccc2cc(S(=O)(=O)c3cccc(Cl)c3)c(=O)oc2c1` [Compound C281], under setting [1], the “Firefly, cmpd/DMSO repeat 1” value was 3.0 and the “Firefly, cmpd/DMSO repeat 2” value worked out at 4.4.
As for `O=c1oc2ccccc2cc1S(=O)(=O)c1cccc(Cl)c1` [Compound C109], under setting [1], the “Firefly, cmpd/DMSO repeat 1” value is listed as 9.2 and the “Firefly, cmpd/DMSO repeat 2” value was found to be 10.3. Moreover, under “Table 13”, the “Firefly/Renilla (NR2F6 stable, clone F4)” value was 2.9; the “Firefly, NR2F6 stable (clone F4)/pGL4” value turned out to be 2.9; the “Firefly, cmpd/DMSO repeat 1” value amounted to 9.2; the “Firefly, cmpd/DMSO repeat 2” value came out at 10.3.
For `COc1ccc(-c2noc(Cn3nccc(C)c3=O)n2)cc1` [Compound Z153], the “Firefly, cmpd/DMSO (mean)” value worked out at 2.0.
Take `COc1ccc2cc(S(=O)(=O)c3ccc(F)c(C)c3)c(=O)oc2c1` [Compound C282]: under setting [1], the “Firefly, cmpd/DMSO repeat 1” value amounted to 0.7 and the “Firefly, cmpd/DMSO repeat 2” value is given as 1.1.
Take `COc1cccc2cc(S(=O)(=O)c3ccc(Cl)c(Cl)c3)c(=O)oc12` [Compound C245]: for the setting “Table 9”, the “Firefly, cmpd/DMSO repeat 1” value is 1.9 and the “Firefly, cmpd/DMSO repeat 2” value was 1.3.
As for `CCOc1cccc2cc(S(=O)(=O)c3cc(F)cc(F)c3)c(=O)oc12` [Compound C230], where the note is “Table 9”, the “Firefly, cmpd/DMSO repeat 1” value is given as 12.5 and the “Firefly, cmpd/DMSO repeat 2” value was 8.3. In addition, under “Table 12”, the “Firefly/Renilla (NR2F6 stable, clone F4)” value stood at 2.5; the “Firefly, NR2F6 stable (clone F4)/pGL4” value was found to be 6.5; the “Firefly, cmpd/DMSO repeat 1” value was 12.5; the “Firefly, cmpd/DMSO repeat 2” value was found to be 8.3.
`O=c1oc2ccc([N+](=O)[O-])cc2cc1S(=O)(=O)c1ccc(Br)cc1` [Compound C138]: under setting [1], the “Firefly, cmpd/DMSO repeat 1” value was 10.0 and the “Firefly, cmpd/DMSO repeat 2” value stood at 16.6.
The like results for `O=C(NCc1ccc(F)cc1)c1ccc2oc(=O)c(S(=O)(=O)c3ccc(Cl)cc3)cc2c1` [Compound C119] were, in that order, 18.4 and 16.2.
The like results for `O=c1oc2ccc(Cl)cc2cc1S(=O)(=O)c1ccc(Cl)c(Cl)c1` [Compound C151] were, in that order, 3.6 and 5.5.
Consider `O=c1oc2ccccc2cc1S(=O)(=O)c1ccccc1F` [Compound C108], for which, under setting [1], the “Firefly, cmpd/DMSO repeat 1” value is on record as 7.9 and the “Firefly, cmpd/DMSO repeat 2” value is 7.3. Further, where the note is “Table 12”, the “Firefly/Renilla (NR2F6 stable, clone F4)” value is 2.6; the “Firefly, NR2F6 stable (clone F4)/pGL4” value amounted to 5.5; the “Firefly, cmpd/DMSO repeat 1” value is reported as 7.9; the “Firefly, cmpd/DMSO repeat 2” value is 7.3.
Turning to `COc1ccc2cc(S(=O)(=O)c3ccc(Cl)cc3)c(=O)oc2c1` [Compound C271], under setting [1], the “Firefly, cmpd/DMSO repeat 1” value turned out to be 2.2 and the “Firefly, cmpd/DMSO repeat 2” value is reported as 1.2.
On to `Cc1ccc2oc(=O)c(S(=O)(=O)c3cccc(Cl)c3)cc2c1` [Compound C300], for which, where the note is “Table 13”, the “Firefly/Renilla (NR2F6 stable, clone F4)” value is recorded as 1.6; the “Firefly, NR2F6 stable (clone F4)/pGL4” value is listed as 4.3; the “Firefly, cmpd/DMSO repeat 1” value turned out to be 9.8; the “Firefly, cmpd/DMSO repeat 2” value was determined as 7.4.
In the case of `COc1ccc(-c2noc(Cn3nccc(Cl)c3=O)n2)cc1` [Compound Z141], the “Firefly, cmpd/DMSO (mean)” value is reported as 1.8.
Regarding `CCOc1cccc2cc(S(=O)(=O)c3ccc(F)c(Cl)c3)c(=O)oc12` [Compound C251], under “Table 9”, the “Firefly, cmpd/DMSO repeat 1” value is given as 2.1 and the “Firefly, cmpd/DMSO repeat 2” value amounted to 1.9.
Turning to `O=c1oc2ccc(Cl)cc2cc1S(=O)(=O)c1ccccc1F` [Compound C220], under setting [1], the “Firefly, cmpd/DMSO repeat 1” value is 10.4 and the “Firefly, cmpd/DMSO repeat 2” value is given as 6.5. Besides, under “Table 13”, the “Firefly/Renilla (NR2F6 stable, clone F4)” value turned out to be 1.1; the “Firefly, NR2F6 stable (clone F4)/pGL4” value was determined as 6.2; the “Firefly, cmpd/DMSO repeat 1” value was 10.4; the “Firefly, cmpd/DMSO repeat 2” value came to 6.5.
`COc1ccc(S(=O)(=O)c2cc3cc(Cl)ccc3oc2=O)cc1OC` [Compound C155]: under setting [1], the “Firefly, cmpd/DMSO repeat 1” value is 37.3 and the “Firefly, cmpd/DMSO repeat 2” value is on record as 33.3. Further, under “Table 12”, the “Firefly/Renilla (NR2F6 stable, clone F4)” value is 2.0; the “Firefly, NR2F6 stable (clone F4)/pGL4” value turned out to be 10.9; the “Firefly, cmpd/DMSO repeat 1” value was found to be 37.3; the “Firefly, cmpd/DMSO repeat 2” value is listed as 33.3.
Turning to `Cc1cc(C)cc(NC(=O)c2ccc3oc(=O)c(S(=O)(=O)c4ccccc4)cc3c2)c1` [Compound C174], under setting [1], the “Firefly, cmpd/DMSO repeat 1” value is 5.8 and the “Firefly, cmpd/DMSO repeat 2” value is 14.3.
On to `COc1ccc2oc(=O)c(S(=O)(=O)c3ccc(Br)cc3)cc2c1` [Compound C208], for which, under setting [1], the “Firefly, cmpd/DMSO repeat 1” value is on record as 0.8 and the “Firefly, cmpd/DMSO repeat 2” value is recorded as 0.9.
For `COc1cccc2cc(S(=O)(=O)c3ccc(C(C)C)cc3)c(=O)oc12` [Compound C241], under “Table 9”, the “Firefly, cmpd/DMSO repeat 1” value worked out at 2.1 and the “Firefly, cmpd/DMSO repeat 2” value was found to be 2.7.
With `O=c1oc2c(F)cc(F)cc2cc1S(=O)(=O)c1ccccc1` [Compound C288], for the setting “Table 11”, the “Firefly, cmpd/DMSO repeat 1” value came out at 6.8 and the “Firefly, cmpd/DMSO repeat 2” value came out at 3.3.
With `O=C(NCCc1ccccc1)c1ccc2oc(=O)c(S(=O)(=O)c3ccc(F)cc3)cc2c1` [Compound C113], under setting [1], the “Firefly, cmpd/DMSO repeat 1” value was determined as 5.8 and the “Firefly, cmpd/DMSO repeat 2” value is 7.0.
Regarding `COc1ccc(S(=O)(=O)c2cc3cc(Br)ccc3oc2=O)cc1OC` [Compound C154], under setting [1], the “Firefly, cmpd/DMSO repeat 1” value stood at 35.4 and the “Firefly, cmpd/DMSO repeat 2” value was determined as 35.4. For the setting “Table 13”, the “Firefly/Renilla (NR2F6 stable, clone F4)” value is recorded as 1.6; the “Firefly, NR2F6 stable (clone F4)/pGL4” value is given as 9.1; the “Firefly, cmpd/DMSO repeat 1” value is given as 35.4; the “Firefly, cmpd/DMSO repeat 2” value came out at 35.4.
Take `O=c1oc2ccc([N+](=O)[O-])cc2cc1S(=O)(=O)c1ccc(F)cc1` [Compound C137]: under setting [1], the “Firefly, cmpd/DMSO repeat 1” value is given as 22.6 and the “Firefly, cmpd/DMSO repeat 2” value was found to be 23.4. Besides, where the note is “Table 13”, the “Firefly/Renilla (NR2F6 stable, clone F4)” value amounted to 1.4; the “Firefly, NR2F6 stable (clone F4)/pGL4” value came to 8.4; the “Firefly, cmpd/DMSO repeat 1” value is given as 22.6; the “Firefly, cmpd/DMSO repeat 2” value worked out at 23.4.
Turning to `Cc1cc(C)cc(S(=O)(=O)c2cc3cc(F)ccc3oc2=O)c1` [Compound C190], under setting [1], the “Firefly, cmpd/DMSO repeat 1” value was determined as 2.1 and the “Firefly, cmpd/DMSO repeat 2” value is 2.5.
In the case of `Cc1ccc(S(=O)(=O)c2cc3cc(C(=O)Nc4cc(C)cc(C)c4)ccc3oc2=O)cc1` [Compound C175], under setting [1], the “Firefly, cmpd/DMSO repeat 1” value was 13.2 and the “Firefly, cmpd/DMSO repeat 2” value worked out at 11.9. Under “Table 13”, the “Firefly/Renilla (NR2F6 stable, clone F4)” value is reported as 1.1; the “Firefly, NR2F6 stable (clone F4)/pGL4” value is listed as 5.7; the “Firefly, cmpd/DMSO repeat 1” value turned out to be 13.2; the “Firefly, cmpd/DMSO repeat 2” value is on record as 11.9.
Consider `CC(C)(C)c1ccc(S(=O)(=O)c2cc3cc(Br)ccc3oc2=O)cc1` [Compound C200], for which, under setting [1], the “Firefly, cmpd/DMSO repeat 1” value came out at 11.0 and the “Firefly, cmpd/DMSO repeat 2” value was found to be 8.1. For the same compound, where the note is “Table 13”, the “Firefly/Renilla (NR2F6 stable, clone F4)” value was determined as 1.2; the “Firefly, NR2F6 stable (clone F4)/pGL4” value is on record as 5.4; the “Firefly, cmpd/DMSO repeat 1” value is recorded as 11.0; the “Firefly, cmpd/DMSO repeat 2” value was 8.1.
As to `Cc1cccc(NC(=O)c2ccc3oc(=O)c(S(=O)(=O)c4ccc(F)cc4)cc3c2)c1C` [Compound C135], under setting [1], the “Firefly, cmpd/DMSO repeat 1” value is 5.6 and the “Firefly, cmpd/DMSO repeat 2” value was 4.9.
`Cc1ccc(S(=O)(=O)c2cc3cc(Br)ccc3oc2=O)cc1` [Compound C197]: under setting [1], the “Firefly, cmpd/DMSO repeat 1” value is given as 17.6 and the “Firefly, cmpd/DMSO repeat 2” value was 14.8. In addition, for the setting “Table 13”, the “Firefly/Renilla (NR2F6 stable, clone F4)” value was 1.1; the “Firefly, NR2F6 stable (clone F4)/pGL4” value was found to be 6.3; the “Firefly, cmpd/DMSO repeat 1” value is on record as 17.6; the “Firefly, cmpd/DMSO repeat 2” value stood at 14.8.
For the compound `CC(C)(C)c1ccc(S(=O)(=O)c2cc3cc(F)cc(F)c3oc2=O)cc1` [Compound C291], for the setting “Table 11”, the “Firefly, cmpd/DMSO repeat 1” value was 0.9 and the “Firefly, cmpd/DMSO repeat 2” value worked out at 0.8.
As for `COc1ccc2cc(S(=O)(=O)c3ccc(C(C)C)cc3)c(=O)oc2c1` [Compound C269], under setting [1], the “Firefly, cmpd/DMSO repeat 1” value is given as 3.0 and the “Firefly, cmpd/DMSO repeat 2” value is 3.0.
`O=C(Nc1ccccc1C(F)(F)F)c1ccc2oc(=O)c(S(=O)(=O)c3ccc(F)cc3)cc2c1` [Compound C120]: under setting [1], the “Firefly, cmpd/DMSO repeat 1” value came to 4.5 and the “Firefly, cmpd/DMSO repeat 2” value was 6.3.
In the case of `O=c1oc2ccccc2cc1S(=O)(=O)c1ccc(F)c(Cl)c1` [Compound C107], under setting [1], the “Firefly, cmpd/DMSO repeat 1” value came to 11.0 and the “Firefly, cmpd/DMSO repeat 2” value amounted to 11.0. Further, under “Table 13”, the “Firefly/Renilla (NR2F6 stable, clone F4)” value worked out at 1.4; the “Firefly, NR2F6 stable (clone F4)/pGL4” value worked out at 5.8; the “Firefly, cmpd/DMSO repeat 1” value is recorded as 11.0; the “Firefly, cmpd/DMSO repeat 2” value is 11.0.
